Columns and labels:
SARS-COV-2 [1] = assay: Treatment of a patient with presumptive Covid-19 (case report); type: in vivo, human
Text: A septuagenarian person experienced sudden frightening onset of severe headache, marked nausea and vomiting, pharyngitis, severe upper respiratory congestion, fever, chills, myalgia, weakness, malaise, and mild to moderate pulmonary congestion. O2 saturation=96%. Patient had been taking Tempol off-and-on for years for cancer prophylaxis and for its possible antiaging activity, as well as some miscellaneous actions such as treatment of periodontitis and osteoarthritis. But, concerned that it would interfere with their activity, they had stopped Tempol about 6 weeks before receiving influenza (Fluvax) and Zoster (Zostavax) immunizations. The presumptive-diagnosis was “Covid-19”, possibly from a medically-related exposure.
Treatment: Nausea and vomiting continued without respite for several hours. Anti-nausea tablets were twice regurgitated intact. Accordingly, treatment was initiated with 30 mg of Tempol PO as the hydroxylamine in a 6% water solution containing 90 mg vitamin-C. Patient kept this down. Along with Tempol-zinc gargles for pharyngitis, intranasal treatment was then initiated with a medication-soaked cotton swab and insufflation, repeated approximately q 6 h as symptoms returned. This was followed by similar doses of Tempol-H three and six hours later, repeated 2-3 times a day, PO for the next ten days. Subsequent intranasal treatment was also repeated 1-3 times a day for 10 days, as needed, titrating to relief of oropharyngeal symptoms as they recurred. On days 2-3, treatment was briefly initiated with hydroxychloroquine, zinc, doxycycline, ivermectin, and famotidine, then withdrawn.

SARS-COV-2 [2] = conditions: potentially physiological Tempol concentrations; cited from earlier work
[3] = test system: nonrespiratory coronavirus; conditions: mouse, in vivo; cited from earlier work
SARS-COV-2 [4] = assay: Person on Tempol heavily exposed to patient 1; type: in vivo, human; conditions: Tempol 60 mg/day
Text: By days 5-7 remaining symptoms were mild reversible-on-treatment nasal congestion, pharyngitis, and malaise. […] PCR for SARS-COV-2 RNA was negative at day 10. While not surprising considering the clinical course, in retrospect, this may have signified some direct antiviral effect of the application of Tempol directly to the upper respiratory mucosa and oropharynx by insufflation, inhalation, or gargling. […] After patient discontinued treatment for several weeks, subsequent putative recurrent post-acute symptoms of Covid-19 such as malaise, myalgia, and shortness of breath appeared.

[5] = biological target: T1, SARS-COV-2 replicase (RNA-Dependent RNA polymerase) (Severe acute respiratory syndrome coronavirus 2, UniProt P0DTD1); conditions: by oxidizing iron-sulfur centers; cited from earlier work
T1 construct: SARS-COV-2 replicase (RNA-Dependent RNA polymerase)

SARS-COV-2 [6] = conditions: in vivo; cited from earlier work

## CC1(C)CC(O)CC(C)(C)N1O [Tempol-H]
SARS-COV-2 [1]; after initiation of treatment
  pulmonary congestion: cleared somewhat
SARS-COV-2 [1]; repeated intranasal treatment (soaked cotton swab and insufflation)
  nasal congestion: quickly reversibly-eased
SARS-COV-2 [1]; that night and several subsequent ones
  events experienced by the patient during treatment: “vivid dreaming”
SARS-COV-2 [1]; within one to two hours of initiation of treatment
  headache: eased significantly

## CC1(C)CC(O)CC(C)(C)N1[O] [Tempol, 4-hydroxy-TEMPO]
SARS-COV-2 [2]
  viral replication in vitro: markedly inhibits viral replication
SARS-COV-2 [1]; day 10
  PCR for SARS-COV-2 RNA: negative
SARS-COV-2 [1]; days 8-9, excepting slight malaise
  overall symptoms: essentially asymptomatic
SARS-COV-2 [1]; further treatment as above plus lung inhalation of 0.1 ml of 6% Tempol or Tempol-H solution
  recurrent post-acute symptoms of Covid-19 (malaise, myalgia, shortness of breath): responded reversibly
SARS-COV-2 [1]; same doses as Tempol-H
  efficacy of Tempol itself (non-reduced form): effective at the same doses
[3]
  murine viral encephalomyelitis: ameliorates
SARS-COV-2 [4]
  development of coronavirus disease after heavy exposure: did not develop clinically-significant coronavirus disease
[5]
  effect on replicase enzyme: inactivates this key enzyme

## CCC(CC)COC(=O)[C@H](C)N[P@](=O)(OC[C@H]1O[C@@](C#N)(c2ccc3c(N)ncnn23)[C@H](O)[C@@H]1O)Oc1ccccc1 [Remdisivir]
SARS-COV-2 [6]
  efficacy of systemic treatment of Covid-19: ineffective or only marginally-effective

## CCN(CCO)CCCC(C)Nc1ccnc2cc(Cl)ccc12 (centres unmarked) [hydroxychloroquine]
SARS-COV-2 [6]
  efficacy of systemic treatment of Covid-19: ineffective or only marginally-effective
